Values joined by “and” are separate entries in the source; they are usually repeats but may differ in a detail not shown here. Equal values may be shown once. Read-outs that look alike come from different tables or passages of the source.
How the values were obtained:
[1] = test system: BM of HPRT-wt recipients; experiment: Transplantation of HPRT-deficient BM after 6TG conditioning alone in HPRT-wt recipients; format: in vivo, mice; conditions: day 4
Text: After conditioning, HPRT-wt recipients were then transplanted with BM from HPRT-deficient congenic donors (CD45.2),

[2] = test system: HPRT-wt mice; experiment: Chronic low-dose 6TG myelotoxicity in HPRT-wt mice; conditions: for survival: over 60 days; for BM histology: mouse, in vivo
[3] = test system: HPRT-wt CD45.1 recipients of HPRT-deficient CD45.2 BM; experiment: Immunophenotypic analysis of hematopoietic tissues 4 months post-transplantation, congeneic CD45.1/CD45.2 transplant model; format: in vivo, mice; conditions: n=5
Description: Multi-lineage reconstitution of lymphohematopoiesis by donor-derived progenitor cells was evaluated 4 months after HSCT with combined 6TG preconditioning and in vivo chemoselection, i.e., 3 months after the end of the 4-week chemoselection period.

[4] = test system: BM of HPRT-wt recipients of HPRT-deficient BM; experiment: Immunophenotypic analysis of BM at 4, 7 and 12 months post-transplantation with 6TG conditioning and chemoselection; format: in vivo, mice; conditions: for B220+ cells, BM (%) / CD4+ cells, BM (%) / CD8+ cells, BM (%) / KLS (HSC) cells, BM (%) / Mac1+/Gr1+ cells, BM (%): % of total CD45+ cells; for CD45+ cells, BM (%): mean ± SD
Description: The relative percentages of CD4+ and CD8+ cells, B220+ cells, and Mac-1+/Gr1+ cells, as well as KLS (lin^−/sca-1^+/c-kit^+) HSC, were determined in BM by immunophenotyping at 4 months, 7 months, and 12 months (Table 6), and compared to treatment-naïve female HPRT-wt (Table 2) and treatment-naïve male HPRT-deficient (Table 3) control mice. […] Thus, HPRT-deficient donor-derived marrow was able to achieve long-term reconstitution of normal hematopoiesis for at least 12 months post-transplantation.

[5] = test system: secondary female recipients of HPRT-deficient male donor BM; experiment: Serial transplantation into secondary recipients with 6TG conditioning and chemoselection; format: in vivo, mice
Text: To further evaluate whether the optimized regimen combining 6TG conditioning with chemoselection selects for long-term repopulating HSCs, we next transplanted BM from primary recipients at 7 months post-transplantation into secondary recipients using the same regimen. The secondary transplant recipients were then maintained for 3 months after the end of their 4-week course of 6TG in vivo chemoselection (Supplementary Figure S3). After 6TG conditioning and chemoselection, HPRT-deficient male donor cells that had engrafted primary recipients were able to serially repopulate secondary female recipients at high levels, (95.5%±1.1%, as determined by XY-FISH).

[6] = test system: BM of HPRT-deficient mice; conditions: mouse, in vivo, 10 mg/kg
Description: (§1) C57BL/6J and B6.129P2-Hprt1^b-m3/J mice were injected intraperitoneally (i.p.) with 200 μl of varying doses of 6TG (Sigma-Aldrich, Saint Louis, Mo.) at different time points as described in the figure legends. Control animals were i.p. injected with 200 μl of sterile H2O.
After blocking with Mouse BD Fc Block (BD Biosciences, San Jose, Calif.), BM, PBL, thymus, or spleen cells were stained with FITC-, PE-, PerCP- or APC-conjugated rat anti-mouse antibodies against CD45, CD45.2, CD4, CD8, Mac1/Gr1, B220, Sca-1, c-kit, and lineage antibody cocktail. Antibodies were received from Biolegend (San Diego, Calif.) or BD Biosciences. Flow cytometric data were acquired on a BD LSRII running BD FACSDiva (BD Biosciences) and analyzed using FlowJo software (TreeStar, Ashland, Oreg.) (Supplementary Figure S2).

[7] = test system: HPRT-wt female recipients of HPRT-deficient male BM; conditions: for donor-derived BM engraftment, XY-FISH / donor-derived PBL, XY-FISH: 5 mg/kg x 4 weeks regimen
Description: Female recipient C57BL/6J (HPRT-wt) or B6.SJL-Ptprc^aPepc^b/BoyJ (HPRT-wt, CD45.1) mice were treated with 10 mg/kg 6TG by i.p. injection 48 hrs before HSCT. For HSCT, 0.8-1×10^7 nucleated BM cells isolated from B6.129P2-Hprt1^b-m3/J male mice (CD45.21 were intravenously injected into HPRT-wt recipients. 6TG (10 mg/kg) was again administered by i.p. injection 2 hrs later, and every 3 days thereafter, at 5 mg/kg for 4 weeks. Serial transplantation into secondary recipient mice was performed using the same cell dose and 6TG preconditioning/chemoselection regimen as above, but using BM from primary recipient mice that had undergone transplantation with 6TG in vivo chemoselection 6 months previously.
FISH was performed on BM and PBL cells using the mouse-specific Whole Chromosome-Y paint probe/RAB9 (XqF1) DNA probes mix (Kreatech, Amsterdam, Netherlands) according to the manufacturer's protocol. To determine the percentage of male donor HPRT-wt cells in the female recipient C57BL/6J mice, 200 nuclei per slide were counted using a fluorescence microscope (Zeiss) equipped with appropriate dual and triple-colour filters.
Accordingly, female HPRT-wt mice were preconditioned with 6TG (10 mg/kg i.p.), with one dose administered 48 hours prior (Day −2) and one dose administered on the day of transplantation (Day 0) per the conditioning schedule established previously. […] Analysis was performed immediately after the in vivo chemoselection period at 2 weeks or 4 weeks, respectively (FIG. 4).

[8] = cited from earlier work
[9] = test system: Hprt-shRNA transduced hematopoietic cells; conditions: total body irradiation preconditioning; 6TG 0.25-2 mg/kg, short periods, started 4 weeks or more after transplantation; cited from earlier work
[10] = test system: HPRT-deficient mice; experiment: Chronic low-dose 6TG treatment in HPRT-deficient mice
Description: as §1
Necropsy of all mice used in this study and histological examination of all thoracic and abdominal organs and bone marrow was performed by the UCLA Division of Laboratory Animal Medicine Diagnostic Service Laboratory. Tissues were routinely processed or decalcified if necessary, and paraffin sections were cut and stained with hematoxylin and eosin (H&E).
HPRT-wt and HPRT-deficient mice (n=3 per group) were injected i.p. with vehicle alone, 0.25 mg/kg, 0.5 mg/kg, 1.0 mg/kg, 2.5 mg/kg, or 5.0 mg/kg 6TG every 3 days for up to 60 days.

[11] = secondary recipients, 3 months after end of 4-week chemoselection, mean ± SD, n=6
[12] = secondary recipients, % of total CD45+ cells, n=6
[13] = 4, 7 and 12 months after transplantation

Nc1nc2nc[nH]c2c(=S)[nH]1 [6TG, 6-thioguanine]
count of nucleated BM cells recovered ([1]; 6TG 10 mg/kg i.p. Day -2 and Day 0, HPRT-deficient BM transplant, n=4): 3.8×10^6±0.5×10^6
total BM cell population derived from donor HPRT-deficient CD45.2+ hematopoietic cells (flow cytometry) ([1]; 6TG 10 mg/kg i.p. Day -2 and Day 0 conditioning alone): 17.8%±4.4
survival ([2]; HPRT-wt, 0.25 mg/kg 6TG i.p. every 3 days, n=3): 100%
survival ([2]; HPRT-wt, 0.5 mg/kg 6TG i.p. every 3 days, n=3): 100%
deaths occurred on Day ([2]; HPRT-wt, 1.0 mg/kg 6TG every 3 days, n=3, 1 mg/kg): 38 and 42 and 51
Day of sacrifice necessitated by distress, anemia and weight loss ([2]; HPRT-wt, 2.5 mg/kg 6TG every 3 days, 22.5 mg/kg total dosage): 28
Day of sacrifice necessitated by distress, anemia and weight loss ([2]; HPRT-wt, 5.0 mg/kg 6TG every 3 days, 35 mg/kg total dosage): 22
BM histology ([2]; 0.25 mg/kg): normal cellularity
BM histology ([2]; 0.5 mg/kg): normal cellularity
BM histology ([2]; 1 mg/kg): several apoptotic figures and more blast cells
BM histology ([2]; 2.5 mg/kg): reduced cellularity and widespread apoptosis
BM histology ([2]; 5 mg/kg): markedly depleted
B220+ cells, BM (%) ([3]; % of total CD45.2+ cells): 29.3 ± 6.3%
B220+ cells, PBL (%) ([3]; % of total CD45.2+ cells): 45.4 ± 3.8%
B220+ cells, Spleen (%) ([3]; % of total CD45.2+ cells): 58.2 ± 8.6%
CD4+ cells, BM (%) ([3]; % of total CD45.2+ cells): 3.2 ± 1.3%
CD4+ cells, PBL (%) ([3]; % of total CD45.2+ cells): 17.0 ± 3.0%
CD4+ cells, Spleen (%) ([3]; % of total CD45.2+ cells): 22.6 ± 3.6%
CD4+ cells, Thymus (%) ([3]; % of total CD45.2+ cells): 10.4 ± 2.8%
CD4+/CD8+ cells, Thymus (%) ([3]; % of total CD45.2+ cells): 79.3 ± 4.2%
CD8+ cells, BM (%) ([3]; % of total CD45.2+ cells): 3.0 ± 1.3%
CD8+ cells, PBL (%) ([3]; % of total CD45.2+ cells): 12.7 ± 0.9%
CD8+ cells, Spleen (%) ([3]; % of total CD45.2+ cells): 14.9 ± 2.1%
CD8+ cells, Thymus (%) ([3]; % of total CD45.2+ cells): 4.3 ± 0.8%
Mac1+/Gr1+ cells, BM (%) ([3]; % of total CD45.2+ cells): 80.68 ± 6.1%
Mac1+/Gr1+ cells, PBL (%) ([3]; % of total CD45.2+ cells): 28.2 ± 3.3%
Mac1+/Gr1+ cells, Spleen (%) ([3]; % of total CD45.2+ cells): 14.1 ± 1.6%
CD45.2+ cells, BM (%) ([3]; mean ± SD): 76.1 ± 9.3%
CD45.2+ cells, PBL (%) ([3]; mean ± SD): 73.8 ± 5.2%
CD45.2+ cells, Spleen (%) ([3]; mean ± SD): 65.9 ± 5.2%
CD45.2+ cells, Thymus (%) ([3]; mean ± SD): 89.7 ± 8.3%
B220+ cells, BM (%) ([4]; 4 months post-transplantation): 51.8 ± 2.4%
CD4+ cells, BM (%) ([4]; 4 months post-transplantation): 2.5 ± 0.6%
CD8+ cells, BM (%) ([4]; 4 months post-transplantation): 1.9 ± 0.1%
KLS (HSC) cells, BM (%) ([4]; 4 months post-transplantation): 7.8 ± 1.0%
Mac1+/Gr1+ cells, BM (%) ([4]; 4 months post-transplantation): 77.0 ± 13.0%
CD45+ cells, BM (%) ([4]; 4 months post-transplantation): 91.6 ± 1.9%
B220+ cells, BM (%) ([4]; 7 months post-transplantation): 32.9 ± 3.8%
CD4+ cells, BM (%) ([4]; 7 months post-transplantation): 3.8 ± 0.2%
CD8+ cells, BM (%) ([4]; 7 months post-transplantation): 2.2 ± 0.4%
KLS (HSC) cells, BM (%) ([4]; 7 months post-transplantation): 7.0 ± 1.1%
Mac1+/Gr1+ cells, BM (%) ([4]; 7 months post-transplantation): 80.8 ± 2.3%
CD45+ cells, BM (%) ([4]; 7 months post-transplantation): 94.3 ± 2.1%
B220+ cells, BM (%) ([4]; 12 months post-transplantation): 11.5 ± 2.8%
CD4+ cells, BM (%) ([4]; 12 months post-transplantation): 2.8 ± 2.7%
CD8+ cells, BM (%) ([4]; 12 months post-transplantation): 1.8 ± 0.6%
KLS (HSC) cells, BM (%) ([4]; 12 months post-transplantation): 1.8 ± 0.6%
Mac1+/Gr1+ cells, BM (%) ([4]; 12 months post-transplantation): 72.3 ± 5.4%
CD45+ cells, BM (%) ([4]; 12 months post-transplantation): 82.5 ± 4.9%
repopulation of secondary female recipients by HPRT-deficient male donor cells, XY-FISH ([5]; BM from primary recipients at 7 months, same 6TG regimen): 95.5%±1.1
CD45+ cells, BM (%) [5, 11]: 84.6 ± 4.7%
CD45+ cells, PBL (%) [5, 11]: 95.8 ± 1.4%
B220+ cells, BM (%) [5, 12]: 19.1 ± 2.9%
B220+ cells, PBL (%) [5, 12]: 33.3 ± 12.3%
CD4+ cells, BM (%) [5, 12]: 4.1 ± 1.0%
CD4+ cells, PBL (%) [5, 12]: 7.0 ± 3.3%
CD8+ cells, BM (%) [5, 12]: 2.4 ± 0.8%
CD8+ cells, PBL (%) [5, 12]: 7.0 ± 3.2%
Mac1+/Gr1+ cells, BM (%) [5, 12]: 78.3 ± 4.7%
Mac1+/Gr1+ cells, PBL (%) [5, 12]: 31.6 ± 11.7%
B220+ cells in BM [6]: 10.7 ± 3.5%
BM histology (H&E) [6]: completely unaffected
CD4+ cells in BM [6]: 2.9 ± 1.7%
CD8+ cells in BM [6]: 2.7 ± 0.4%
CD45+ cells in BM [6]: 90.0 ± 2.0%
KLS (HSC) cells in BM [6]: 2.0 ± 0.6%
Mac1+/Gr1+ cells in BM [6]: 79.3 ± 2.9%
count of nucleated BM cells obtained from one femur and tibia [6]: 1.5×10^7±0.3×10^7
donor-derived BM engraftment, XY-FISH ([7]; 4 months after transplantation): 97.7%±0.5
donor-derived PBL, XY-FISH ([7]; 4 months after transplantation, p=0.01): 67.4%±10.6
donor-derived BM engraftment, XY-FISH ([7]; 7 months after transplantation): 94.7%±1.9
donor-derived PBL, XY-FISH ([7]; 7 months after transplantation, p<0.01): 73.3%±7.9
donor-derived BM engraftment, XY-FISH ([7]; 12 months after transplantation): 93.0%±0.8
donor-derived PBL, XY-FISH ([7]; 12 months after transplantation, p<0.01): 73.0%±10.7
gross pathological and histological examination [7, 13]: no significant abnormalities
long-term condition of transplanted animals [7, 13]: remained alive and well
replacement of the recipient BM ([7]; 6TG pre-conditioning and single cycle chemoselection): > 95%
body weights ([7]; 6TG-treated transplanted animals): decreased initially during the first week after transplantation in the 6TG-treated animals, but stabilized and all animals regained normal weight thereafter
engraftment of HPRT-deficient donor BM (XY-FISH), summary ([7]; combined 6TG conditioning and post transplant chemoselection): ~95%
tolerability of combined 6TG conditioning, HSCT and in vivo chemoselection ([7]; mouse, in vivo): well-tolerated
histopathology: overall cellularity and hematopoiesis of BM ([7]; regardless of 6TG chemoselection dosage or duration): indistinguishable from the untreated HPRT-wt control
effect of high single oral dose ([8]; as much as 35 mg/kg in a single oral dose): reversible myelosuppression
absorption after oral 6TG administration ([8]; oral, estimated): ~30%
engraftment levels [9]: 5-50%
survival ([10]; 0.25-5.0 mg/kg 6TG every 3 days, up to 105 mg/kg total dose, 60 days): survived for the duration of the experiment
histology of other tissues (heart, lung, liver, pancreas, kidney, spleen) ([10]; chronic 6TG, Day 60): No significant treatment-related abnormalities
BM pathology ([10]; regardless of 6TG dosage, Day 60): No significant BM pathology
